Data reported in article PMC4257840 (Journal of Medicinal Chemistry, 2014).

Key:
[1] = Measurement of LogD7.4 (n-octanol/PBS shake); format: physicochemical; settings: single determination, n-octanol/PBS pH 7.4; read-out: Log D7.4
Experimental: Appendix 4. Measurement of LogD7.4
Test compounds (~1 mg) were weighed into 2 mL HPLC vials. n- Octanol (0.7 mL), pre-saturated with 10 mM phosphate buffered saline pH7.4 (PBS), was added to each vial followed b y PBS (0. 7 mL), which had been pre-saturat ed with n-octanol. The mixtures were shaken for 90 min and then centrifuged for 10 min at 4,000 rpm. The upper organic l ayer (0.2 m L) and the aqueous la yer (0.5 mL) were removed from each vial and anal yz e d b y LC -MS. Mass spect ral anal ysis was used to confirm peak identity whilst the concentration of compound was assessed by a diode arra y det ecto r. The logD for each compound was calculated b y takin g th e lo g of its concentration ratio between the oct anol and aqueous la ye r s.Given the robustness of the assa y and the fact that the info rmation was us ed onl y for gen eral guid ance, thes e measu rements were based on singlicate det erminations.

[2] = molecular target: human recombinant procathepsin K (activated) (Homo sapiens, UniProt P43235); assay: Protease counter-screening: Cathepsin K; format: biochemical
human recombinant procathepsin K (activated), sequence (P43235 115-329): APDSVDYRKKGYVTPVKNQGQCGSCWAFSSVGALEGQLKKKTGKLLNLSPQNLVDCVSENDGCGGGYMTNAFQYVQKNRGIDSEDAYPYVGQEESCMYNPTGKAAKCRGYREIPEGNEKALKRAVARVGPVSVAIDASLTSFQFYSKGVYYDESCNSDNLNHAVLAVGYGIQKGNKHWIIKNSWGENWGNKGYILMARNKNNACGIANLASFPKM
Experimental: (§1) Appendix 7. Protease Counter -Screening
(§2) Protease counter-screeni ng was performed using the methods described below. Initial screening was conducted in duplicate using a single test substance concentration of 10 µ M .
(§3) Additional assays were conducted in replicate for selected pairin gs of test s ubstance and enz yme in order to enable the determination of IC50 values using conventional procedures.
(§4) Determination of K i was made using the Batch K i program (Biokin Ltd, Pullman, WA) to derive values from the Morrison equation: […]
Where [E ] is the active enz yme concentration, Kiapp is the apparent inhibition const ant, v 0 is the control velocit y in the absence of inhibitors, vb is the background velocity, v is the initial reaction velocit y in the presence of inhibitor, and I is the inhibitor concentration.Thence:
Where [S ] is the substrate concentration and KM is the Michealis constant.
Caspase 1: Activity against human recombinant caspase 1 expressed in E. coli was tested using Ac-YVAD- AMC as the substrate. […]
The amount of MCA-P LG formed was measured spectrofluorimetricall y at 340 nm/400 nm. […]
AMC formation was read at 360 nm/465 nm.
Cathepsin L2: Human recombinant cathepsin L2 expressed in NS0 cells was used as the enzyme source. […] Form ation of AMC was measured at 360 […]
The amount of AMC formed was read spectrofluorimetricall y at 360 nm/465 nm. […]

Human recombinant MMP-9 = molecular target: T1, Human recombinant MMP-9 (Homo sapiens, UniProt P14780); assay: Protease counter-screening: MMP-9; format: biochemical
T1 construct: host or cells: mammalian cells
T1 sequence (P14780 107-707 limits assumed): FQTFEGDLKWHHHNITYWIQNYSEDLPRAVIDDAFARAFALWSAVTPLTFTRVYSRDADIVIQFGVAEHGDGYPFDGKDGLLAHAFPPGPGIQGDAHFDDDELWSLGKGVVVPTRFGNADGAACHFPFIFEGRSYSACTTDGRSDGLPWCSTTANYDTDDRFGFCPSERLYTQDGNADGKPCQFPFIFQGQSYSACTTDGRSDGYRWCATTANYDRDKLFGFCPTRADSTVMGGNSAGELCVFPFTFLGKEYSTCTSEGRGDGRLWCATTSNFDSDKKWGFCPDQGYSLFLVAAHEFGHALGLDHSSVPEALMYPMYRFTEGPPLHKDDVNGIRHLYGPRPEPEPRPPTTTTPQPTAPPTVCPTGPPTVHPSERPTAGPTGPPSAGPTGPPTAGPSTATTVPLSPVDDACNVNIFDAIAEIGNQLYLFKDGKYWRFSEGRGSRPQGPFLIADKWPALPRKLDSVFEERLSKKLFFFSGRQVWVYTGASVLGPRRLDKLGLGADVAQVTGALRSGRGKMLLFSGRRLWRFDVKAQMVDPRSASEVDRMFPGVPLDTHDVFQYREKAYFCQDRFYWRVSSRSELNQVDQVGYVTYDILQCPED
Experimental: as §1, §2, §3, §4
MMP-9: Human recombinant MMP-9 proenz yme ex pressed in mammalian cells was activated with APMA for 60 min at 37 °C. […] The amount of MCA-P LG formed was read spectrofluorimetricall y at 340 nm/400 nm.
ADAM-17/TACE: Human recombinant ADAM-17 expressed in Sf21 insect cells was used as enz yme sour ce. […] T he amount of MCA-P LAQA formed w as read spectro fluorimetricall y at 340 nm/400 nm.
Angiotensin converting enzyme: Test compound or vehicle was pre- incubated in modified HEPES buffer pH 7.5 for 15 min at 25 °C with 31 mU/mL angiotensin converting enz yme from rabbit lung. […] The amount of substrate remaining was read spectrophotometricall y at 340 nm and used to deri ve the extent of reaction and its inhibition. […]

In the case of `CC(C)[C@H](NC(=O)[C@H](C)NC(=O)[C@@H](NC(=O)c1ccccc1)C(C)(C)C)C(=O)C(=O)NCc1ccccc1` [Compound 38, N-{(S)-1-[(S)-1-((S)-1-Benzylaminooxalyl-2-methyl-propylcarbamoyl)-ethylcarbamoyl]-2,2-dimethyl-propyl}-benzamide], the logD at 1.5 h [1] is reported as 3.2, the IC50 [2] is reported as 2920 nM and the inhibition at 10 µM (Human recombinant MMP-9) is reported as 5%.
